Results taken from ChEMBL document CHEMBL4312034, “Virtual screening-driven discovery of dual 5-HT6/5-HT2A receptor ligands with pro-cognitive properties” (Eur J Med Chem, 2020).
Each block holds one compound with its values, some of them ahead of it. Activity calls are given as the source filed them. The calls are words filed in the database; no cut-off is given here.

How the values were obtained:
[1] = target: T1, 5-hydroxytryptamine receptor 6 (Homo sapiens, UniProt P50406); assay: Binding affinity to 5-HT6R (unknown origin) assessed as inhibitory constant
[2] = target: T1, 5-hydroxytryptamine receptor 6; assay: Displacement of [3H]-LSD from human 5-HT6R expressed in HEK293 cells after 1 hr by microbeta plate reader analysis; assay type: cell-based
[3] = target: 5-hydroxytryptamine receptor 2A (Homo sapiens, UniProt P28223); assay: Binding affinity to human 5-HT2AR expressed in HEK293 cells by competitive binding assay; assay type: cell-based
[4] = target: T2, 5-hydroxytryptamine receptor 1A (Homo sapiens, UniProt P08908); assay: Displacement of [3H]-8-OH-DPAT from human 5-HT1A receptor expressed in HEK293 cells after 1 hr by microbeta plate reader analysis; assay type: cell-based
T2 sequence (P08908 whole entry): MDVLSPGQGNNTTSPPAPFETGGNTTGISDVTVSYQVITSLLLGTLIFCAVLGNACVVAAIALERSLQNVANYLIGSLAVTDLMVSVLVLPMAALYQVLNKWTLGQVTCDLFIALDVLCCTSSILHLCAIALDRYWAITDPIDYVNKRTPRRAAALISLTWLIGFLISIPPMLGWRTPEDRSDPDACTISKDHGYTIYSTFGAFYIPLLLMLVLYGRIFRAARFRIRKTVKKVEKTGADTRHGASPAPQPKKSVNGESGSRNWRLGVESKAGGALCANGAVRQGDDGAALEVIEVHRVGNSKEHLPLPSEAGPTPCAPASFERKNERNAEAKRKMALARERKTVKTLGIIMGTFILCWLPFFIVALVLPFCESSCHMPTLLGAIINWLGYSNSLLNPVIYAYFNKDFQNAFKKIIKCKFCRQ

[5] = target: 5-hydroxytryptamine receptor 7 (Homo sapiens, UniProt P34969); assay: Displacement of [3H]-CT from human 5-HT7 receptor expressed in HEK293 cells after 1 hr by microbeta plate reader analysis; assay type: cell-based
D(2) dopamine receptor = D(2) dopamine receptor (Homo sapiens, UniProt P14416); assay: Displacement of [3H]-raclopride from human D2R expressed in HEK293 cells after 1 hr by microbeta plate reader analysis; assay type: cell-based
[6] = Half life in rat liver microsomes up to 60 mins by HPLC-LC/MS analysis
in vitro = conditions: rat
Rattus norvegicus = assay: Reversal of phencyclidine-induced memory impairment in Sprague-Dawley rat at 1 to 3 mg/kg, po for 2 hrs followed by phencyclidine treatment 45 mins prior to testing by novel object recognition test; assay type: functional, organism-based
5-HT2C receptor = target: T3, 5-HT2C receptor (Homo sapiens, UniProt P28335); assay: Inhibition of 5-HT2C receptor (unknown origin) at 10^-6 M relative to control
T3 sequence (P28335 whole entry): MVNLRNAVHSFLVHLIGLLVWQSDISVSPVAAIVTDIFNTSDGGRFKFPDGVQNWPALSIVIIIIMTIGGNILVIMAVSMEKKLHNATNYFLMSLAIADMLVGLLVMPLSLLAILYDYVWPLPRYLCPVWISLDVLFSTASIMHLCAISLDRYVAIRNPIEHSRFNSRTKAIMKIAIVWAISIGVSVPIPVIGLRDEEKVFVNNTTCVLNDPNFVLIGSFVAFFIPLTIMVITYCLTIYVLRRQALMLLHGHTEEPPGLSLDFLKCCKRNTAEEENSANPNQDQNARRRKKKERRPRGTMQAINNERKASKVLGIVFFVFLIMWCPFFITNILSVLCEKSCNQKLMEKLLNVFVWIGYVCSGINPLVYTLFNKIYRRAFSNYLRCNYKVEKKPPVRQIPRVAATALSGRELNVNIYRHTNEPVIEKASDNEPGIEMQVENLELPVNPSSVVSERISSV

Sequence of D(2) dopamine receptor (P14416 whole entry): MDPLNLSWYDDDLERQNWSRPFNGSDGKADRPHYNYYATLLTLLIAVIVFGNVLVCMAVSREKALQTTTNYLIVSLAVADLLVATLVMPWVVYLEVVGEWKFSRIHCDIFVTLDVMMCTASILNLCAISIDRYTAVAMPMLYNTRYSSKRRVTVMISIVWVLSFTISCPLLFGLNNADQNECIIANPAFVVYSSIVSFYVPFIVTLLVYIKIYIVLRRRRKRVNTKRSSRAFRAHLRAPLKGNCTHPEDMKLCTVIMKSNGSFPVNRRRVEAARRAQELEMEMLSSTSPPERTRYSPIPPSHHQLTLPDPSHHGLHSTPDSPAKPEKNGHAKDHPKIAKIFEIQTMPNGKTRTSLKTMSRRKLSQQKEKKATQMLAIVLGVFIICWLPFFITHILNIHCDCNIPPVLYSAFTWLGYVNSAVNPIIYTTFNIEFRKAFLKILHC
T1 sequence (P50406 whole entry): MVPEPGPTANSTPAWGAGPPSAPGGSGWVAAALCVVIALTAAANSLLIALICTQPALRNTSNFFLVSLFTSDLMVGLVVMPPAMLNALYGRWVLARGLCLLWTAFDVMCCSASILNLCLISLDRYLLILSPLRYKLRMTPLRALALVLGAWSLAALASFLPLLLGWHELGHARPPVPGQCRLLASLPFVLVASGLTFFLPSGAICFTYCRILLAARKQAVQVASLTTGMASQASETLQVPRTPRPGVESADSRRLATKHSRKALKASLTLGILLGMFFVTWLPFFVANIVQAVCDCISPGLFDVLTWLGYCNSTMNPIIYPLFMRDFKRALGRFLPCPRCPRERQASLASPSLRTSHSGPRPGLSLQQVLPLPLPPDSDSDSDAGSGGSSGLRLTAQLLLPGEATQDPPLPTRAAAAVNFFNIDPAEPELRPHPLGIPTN
Sequence of 5-hydroxytryptamine receptor 7 (P34969 whole entry): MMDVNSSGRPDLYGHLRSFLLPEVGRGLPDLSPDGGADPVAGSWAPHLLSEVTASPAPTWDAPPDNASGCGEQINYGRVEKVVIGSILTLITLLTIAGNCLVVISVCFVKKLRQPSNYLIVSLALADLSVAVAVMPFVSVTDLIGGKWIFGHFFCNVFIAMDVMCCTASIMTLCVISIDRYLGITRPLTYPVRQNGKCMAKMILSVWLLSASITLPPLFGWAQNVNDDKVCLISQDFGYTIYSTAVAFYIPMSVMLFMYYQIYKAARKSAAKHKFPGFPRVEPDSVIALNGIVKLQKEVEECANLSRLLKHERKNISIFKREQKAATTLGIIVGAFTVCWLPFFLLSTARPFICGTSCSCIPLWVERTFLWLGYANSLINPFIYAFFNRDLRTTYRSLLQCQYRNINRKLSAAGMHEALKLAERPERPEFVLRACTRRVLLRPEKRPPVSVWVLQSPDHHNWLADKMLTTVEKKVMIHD
Sequence of 5-hydroxytryptamine receptor 2A (P28223 whole entry): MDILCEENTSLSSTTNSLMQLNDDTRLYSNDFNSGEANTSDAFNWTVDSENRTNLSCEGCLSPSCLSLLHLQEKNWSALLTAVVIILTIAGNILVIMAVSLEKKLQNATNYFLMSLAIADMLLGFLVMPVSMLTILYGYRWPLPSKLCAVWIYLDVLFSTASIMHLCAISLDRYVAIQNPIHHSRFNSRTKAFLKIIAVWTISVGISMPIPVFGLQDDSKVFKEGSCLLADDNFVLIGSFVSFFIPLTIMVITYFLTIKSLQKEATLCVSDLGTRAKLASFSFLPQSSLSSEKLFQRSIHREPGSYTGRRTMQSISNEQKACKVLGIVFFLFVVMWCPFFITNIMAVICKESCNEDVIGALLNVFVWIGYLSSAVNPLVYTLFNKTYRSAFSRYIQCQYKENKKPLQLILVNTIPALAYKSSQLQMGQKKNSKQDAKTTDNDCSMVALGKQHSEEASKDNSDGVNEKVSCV

SMILES: N=C(NC1=NC2CCCCC2C(=O)N1)N1CCC(Cc2ccccc2)CC1 (configuration not stated)
Ki [1]: 21 nM

SMILES: COc1cccc2[nH]cc(CCNCc3ccc(-c4ccc(O)cc4)o3)c12
Ki [2]: 14 nM
Ki [3]: 131 nM
Ki [4]: 732 nM
Ki [5]: 2100 nM
Ki (D(2) dopamine receptor): 178 nM

SMILES: Oc1ccc(-c2ccc(CNCCc3c[nH]c4cc(F)ccc34)o2)cc1
Ki [2]: 2 nM
Ki [3]: 96 nM
Ki [4]: 202 nM
Ki [5]: 2730 nM
Ki (D(2) dopamine receptor): 446 nM

SMILES: COc1cccc(-c2ccc(CNCCc3cn(C)c4ccccc34)o2)c1
Ki [2]: 556 nM

SMILES: COc1cccc(-c2ccc(CNCCc3c[nH]c4cccc(OC)c34)o2)c1
Ki [2]: 247 nM

SMILES: COc1ccc2[nH]cc(CCNCc3ccc(-c4cc(Cl)cc(Cl)c4)o3)c2c1
Ki [2]: 210 nM

SMILES: c1ccc2c(CCNCc3ccc(-c4ccc5c(c4)OCO5)o3)c[nH]c2c1
Ki [2]: 220 nM

SMILES: COc1cccc(-c2ccc(CNC(C)Cc3cn(C)c4ccccc34)o2)c1 (configuration not stated)
Ki [2]: 1030 nM

SMILES: COc1ccc2[nH]cc(CCNCc3ccc(-c4ccc(Cl)cc4)o3)c2c1
Ki [2]: 67 nM
Ki [3]: 607 nM
Ki [4]: 218 nM
Ki [5]: 2170 nM
Ki (D(2) dopamine receptor): 571 nM

SMILES: c1ccc2c(-c3ccc(CNCCc4c[nH]c5ccccc45)s3)cccc2c1
Ki [2]: 418 nM

SMILES: Oc1ccc(-c2ccc(CNCCc3c[nH]c4ccccc34)o2)cc1
Ki [2]: 7 nM
Ki [3]: 175 nM
Ki [4]: 292 nM
Ki [5]: 1620 nM
Ki (D(2) dopamine receptor): 757 nM
half-life at 1 h ([6]; liver microsomes): 6 min
microsomal CLint at 1 h (in vitro; liver microsomes): 222 µL/min/mg

SMILES: Fc1ccc2c(CCNCc3cccc(OCC(F)(F)C(F)F)c3)c[nH]c2c1 [IDALOPIRDINE]
Ki [3]: 791 nM
Ki [4]: 3940 nM
Ki [5]: 8640 nM
Ki (D(2) dopamine receptor): 1210 nM
half-life at 1 h ([6]; microsomes): 14 min
Activity (Rattus norvegicus): Active

SMILES: Cc1ccc2[nH]cc(CCNCc3ccc(-c4ccc(O)cc4)o3)c2c1
Ki [2]: 5 nM
Ki [3]: 22 nM
Ki [4]: 399 nM
Ki [5]: 51 nM

SMILES: Clc1cc(Cl)cc(-c2ccc(CNCCc3c[nH]c4ccccc34)o2)c1
Ki [2]: 266 nM

SMILES: COc1cc2c(cc1OC)C(=O)C(CC1CCN(Cc3ccccc3)CC1)C2 (configuration not stated) [DONEPEZIL]
half-life at 1 h ([6]; microsomes): 96 min
microsomal CLint at 1 h (in vitro; microsomes): 14.4 µL/min/mg

SMILES: CN1CCN(c2nc(NCc3ccccc3)c3c(n2)N(C)NC3)CC1
Ki [1]: 7 nM

SMILES: CC(Cc1c[nH]c2ccccc12)NCc1ccc(-c2ccc(O)cc2)o1 (configuration not stated)
Ki [2]: 475 nM

SMILES: CC(C)Oc1cccc(-c2ccc(CNCCc3c[nH]c4ccccc34)o2)c1
Ki [2]: 486 nM

SMILES: COc1ccc2[nH]cc(CC(C)NCc3ccc(-c4ccc(O)cc4)o3)c2c1 (configuration not stated)
Ki [2]: 345 nM

SMILES: COc1ccc2occ(CCNCc3ccc(-c4ccc(O)cc4)o3)c2c1
Ki [2]: 1700 nM

SMILES: CCc1cc2c(N3CCN(C)CC3)nc(C)nc2s1
Ki [1]: 316 nM

SMILES: COc1ccc2[nH]c(C)c(CCNCc3ccc(-c4ccc(O)cc4)o3)c2c1
Ki [2]: 21 nM
Ki [3]: 42 nM
Ki [5]: 5320 nM
Ki (D(2) dopamine receptor): 167 nM
half-life at 1 h ([6]; liver microsomes): 8 min
microsomal CLint at 1 h (in vitro; liver microsomes): 184 µL/min/mg

SMILES: COc1cccc(-c2ccc(CNCCc3c[nH]c4ccc(OC)cc34)o2)c1
Ki [2]: 76 nM
Ki [3]: 216 nM
Ki [4]: 91 nM
Ki [5]: 871 nM

SMILES: Oc1ccc(-c2ccc(CNCCc3c[nH]c4ccc(F)cc34)o2)cc1
Ki [2]: 2 nM
Ki [3]: 11 nM
Ki [4]: 1010 nM
Ki [5]: 895 nM
Ki (D(2) dopamine receptor): 376 nM
inhibition at 1 µM (5-HT2C receptor): 99%
half-life at 1 h ([6]; microsomes): 6 min
microsomal CLint at 1 h (in vitro; microsomes): 251 µL/min/mg

SMILES: CN1CCN(c2ccnc(SCc3ccccc3Cl)n2)CC1
Ki [1]: 8880 nM

SMILES: CN1C=C2C(NC(=S)NC2c2ccc(F)cc2)/C(=C\c2ccc(F)cc2)C1 (configuration not stated)
Ki [1]: 596 nM

SMILES: CC1=CC=CN2C(=O)C3C=C(S(=O)(=O)c4ccccc4)C(=N)N(Cc4ccc(F)cc4)C3N=C12 (configuration not stated)
Ki [1]: 594 nM

SMILES: Oc1ccc(-c2ccc(CNCCc3c[nH]c4ncccc34)o2)cc1
Ki [2]: 531 nM

SMILES: Clc1cccc(-c2ccc(CNCCc3c[nH]c4ccccc34)o2)c1
Ki [2]: 185 nM

SMILES: CC(CSc1nc2ccccc2c(=O)n1-c1ccc(Cl)cc1)N(C)C (configuration not stated)
Ki [1]: 20 nM

SMILES: COc1ccc2[nH]cc(CCN(C)Cc3ccc(-c4ccc(O)cc4)o3)c2c1
Ki [2]: 199 nM
half-life at 1 h ([6]; microsomes): 10 min
microsomal CLint at 1 h (in vitro; microsomes): 138 µL/min/mg

SMILES: c1coc(-c2ccc(CNCCc3c[nH]c4ccccc34)o2)c1
Ki [2]: 419 nM

Now from value to compound:

Ki [2]: 55 nM
Ki [3]: 29 nM
Ki [4]: 64 nM
Ki [5]: 3150 nM
Ki (D(2) dopamine receptor): 391 nM
SMILES: COc1ccc2[nH]cc(CCNCc3ccc(-c4cccc(O)c4)o3)c2c1

Ki [2]: 774 nM
SMILES: O=[N+]([O-])c1ccc(-c2ccc(CNCCc3c[nH]c4ccccc34)o2)cc1

Ki [2]: 264 nM
SMILES: c1ccc(-c2ccc(CNCCc3c[nH]c4ccccc34)[nH]2)cc1

Ki [2]: 152 nM
SMILES: c1ccc(-c2ccc(CNCCc3c[nH]c4ccccc34)s2)cc1

Ki [2]: 303 nM
SMILES: Cn1cc(CCNCc2ccc(-c3ccccc3)o2)c2ccccc21

Ki [2]: 334 nM
SMILES: CCCN(CCc1c[nH]c2ccccc12)Cc1ccc(-c2ccccc2)o1

Ki [1]: 58 nM
SMILES: COc1ccc(Cc2nc(N3CCNCC3)nc3cccnc23)c(OC)c1

Ki [2]: 132 nM
SMILES: COc1cccc2[nH]cc(CCNCc3ccc(-c4ccc(F)cc4)o3)c12

Ki [2]: 60 nM
Ki [3]: 33 nM
Ki [4]: 431 nM
SMILES: Oc1ccc(-c2ccc(CNCCc3c[nH]c4ccc(Cl)cc34)o2)cc1

Ki [2]: 693 nM
SMILES: COc1ccc(-c2ccc(CNCCc3c[nH]c4ccccc34)o2)cc1OC

Ki [2]: 109 nM
SMILES: COc1cccc2[nH]cc(CCNCc3ccc(-c4ccccc4)o3)c12

Ki [1]: 894 nM
SMILES: Oc1c(CN2CCCC2)cc(CSc2ccccc2)c2cccnc12

Ki [2]: 522 nM
SMILES: Oc1ccc(-c2ccc(CNCCc3coc4ccc(F)cc34)o2)cc1

Ki [1]: 875 nM
SMILES: Cc1cc(OCCN(C)C)nc(NCc2ccccc2)n1

Ki [2]: 90 nM
Ki [3]: 35 nM
Ki [4]: 334 nM
Ki [5]: 3300 nM
Ki (D(2) dopamine receptor): 1360 nM
SMILES: COc1ccc(-c2ccc(CNCCc3c[nH]c4ccc(OC)cc34)o2)cc1

Ki [2]: 61 nM
Ki [3]: 199 nM
Ki [4]: 775 nM
Ki [5]: 525 nM
Ki (D(2) dopamine receptor): 368 nM
SMILES: CN(CCc1c[nH]c2ccccc12)Cc1ccc(-c2ccccc2)o1

Ki [2]: 121 nM
Ki [3]: 28 nM
Ki [4]: 146 nM
Ki [5]: 1500 nM
Ki (D(2) dopamine receptor): 1730 nM
SMILES: COc1ccc2[nH]cc(CCNCc3ccc(-c4cn[nH]c4)o3)c2c1

Ki [2]: 3 nM
Ki [3]: 41 nM
Ki [4]: 120 nM
Ki [5]: 206 nM
Ki (D(2) dopamine receptor): 220 nM
half-life at 1 h ([6]; liver microsomes): 22 min
microsomal CLint at 1 h (in vitro; liver microsomes): 63.4 µL/min/mg
SMILES: COc1ccc2[nH]cc(CCNCc3ccc(-c4ccc(O)cc4)o3)c2c1

Ki [2]: 101 nM
Ki [3]: 843 nM
Ki [4]: 1050 nM
Ki [5]: 9860 nM
Ki (D(2) dopamine receptor): 1020 nM
SMILES: COc1ccc2[nH]cc(CCNCc3ccc(-c4cnc5ccccc5c4)o3)c2c1

Ki [1]: 198 nM
SMILES: Cc1nc(N2CCCN(C)CC2)c2c3c(sc2n1)CCC3

Ki [1]: 61 nM
SMILES: CN1CCN(c2oc(-c3ccccc3Cl)nc2S(=O)(=O)c2ccccc2)CC1

Ki [2]: 1460 nM
SMILES: CC(=O)Oc1ccc(-c2ccc(CNCCc3c[nH]c4ccccc34)o2)cc1

Ki [2]: 91 nM
Ki [3]: 461 nM
Ki [4]: 125 nM
Ki [5]: 1280 nM
Ki (D(2) dopamine receptor): 676 nM
SMILES: c1ccc(-c2ccc(CNCCc3c[nH]c4ccccc34)o2)cc1

Ki [2]: 201 nM
SMILES: c1ccc2c(-c3ccc(CNCCc4c[nH]c5ccccc45)o3)cccc2c1
